Experimental data reported in patent publication US20210403567A1, “METHODS OF TREATING CERVICAL CANCER BY ADMINISTERING A PD-1 INHIBITOR” (priority 2020, published 2021).
Several values for one entry are separate records, joined by “and”; a condition that tells them apart may be missing. Equal values may be shown once.

Test system: recurrent or metastatic cervical cancer that has progressed after platinum-containing chemotherapy
Test: Phase 3 trial, cemiplimab 350 mg IV Q3W versus investigator's choice (IC) chemotherapy: OS, PFS, ORR, DOR;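 further: randomized trial arms, OS counted from randomization until death with censoring at last contact, PFS until first RECIST 1.1 progression or death from any cause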
Conditions: for OS Hazard Ratio (95% CI) / OS subgroup analysis, Hazard Ratio (95% CI) / PFS HR (95% CI): cemiplimab vs chemotherapy; for Median OS (95% CI) / Median PFS (95% CI) / Median DOR, months (95% CI): Kaplan-Meier; for PFS Hazard Ratio (95% CI): cemiplimab vs chemo; for reduction in the risk of disease progression: vs chemotherapy
[1] = AC, cemiplimab N=65, chemo N=66
[2] = Example 3 analysis, total population
[3] = Example 4 updated, AC, listed as cemiplimab
[4] = Example 4 updated, SCC, listed as cemiplimab
[5] = Example 4 updated, overall population
[6] = Example 4 updated, overall population, listed as cemiplimab
[7] = overall population, listed as cemiplimab
[8] = overall population, N=304 per arm

Substance: cemiplimab
- ORR (AC): 12.3% and 12%
- OS Hazard Ratio (95% CI) (AC (non-SCC)): 0.556 (0.363, 0.853) and 0.56 (0.36-0.85)
- OS Hazard Ratio (95% CI) (AC (non-SCC), listed as cemiplimab): 0.56
- Estimated Event-Free Probability (PFS), % (95% CI) (AC, 6 months): 30.1 (19.3, 41.6) %
- Estimated Survival Probability, % (95% CI) (AC, 6 months): 69.6 (56.5, 79.4) %
- Estimated Event-Free Probability (PFS), % (95% CI) (AC, 12 months): 10.6 (4.4, 20.0) %
- Estimated Survival Probability, % (95% CI) (AC, 12 months): 57.4 (43.9, 68.7) %
- Estimated Event-Free Probability (PFS), % (95% CI) (AC, 18 months): 8.5 (3.0, 17.6) %
- Estimated Survival Probability, % (95% CI) (AC, 18 months): 34.2 (21.5, 47.3) %
- Estimated Event-Free Probability (PFS), % (95% CI) (AC, 24 months): 8.5 (3.0, 17.6) %
- Estimated Survival Probability, % (95% CI) (AC, 24 months): 19.5 (8.4, 34.1) %
- Median OS (95% CI) (AC): 13.3 (9.6, 17.6) months
- Median OS (95% CI) (AC, listed as cemiplimab): 13.3 months
- Best Overall Tumor Response: Complete Response (CR) [1]: 3 (4.6%) n (%)
- Best Overall Tumor Response: Not Evaluable (NE) [1]: 6 (9.2%) n (%)
- Best Overall Tumor Response: Partial Response (PR) [1]: 5 (7.7%) n (%)
- Best Overall Tumor Response: Progressive Disease (PD) [1]: 19 (29.2%) n (%)
- OS: Number of censored patients [1]: 24 (36.9%) n (%)
- Objective Response Rate (ORR: CR + PR) [1]: 8 (12.3%) n (%)
- Reduced risk of death (vs. chemotherapy) (AC, post-hoc): 44%
- Reduced risk of death (vs. chemotherapy) (AC, post-hoc, listed as cemiplimab): 44%
- OS subgroup analysis, Hazard Ratio (95% CI) (ECOG status per IWRS: 0): 0.59 (0.43-0.82)
- OS subgroup analysis, Hazard Ratio (95% CI) (ECOG status per IWRS: 1): 0.74 (0.57-0.96)
- PFS: Number of events (Example 3 analysis, Adeno, cemiplimab N=65, chemo N=66): 55 (84.6%) n (%)
- PFS Hazard Ratio (95% CI) (Example 3 analysis, Adeno): 0.849 (0.574, 1.255)
- Median PFS in month (95% CI) (Example 3 analysis, SCC): 2.8 (2.6, 4.0) month
- PFS: Number of censored patients (Example 3 analysis, SCC): 53 (22.2%) n (%)
- PFS: Number of deaths (Example 3 analysis, SCC): 25 (10.5%) n (%)
- PFS: Progressive Disease (Example 3 analysis, SCC): 161 (67.4%) n (%)
- Reduced risk of progression (vs. chemotherapy) (Example 3 analysis, SCC): 31%
- PFS Hazard Ratio (95% CI) (Example 3 analysis, SCC): 0.686 (0.559, 0.843)
- Median PFS in month (95% CI) [2]: 2.8 (2.6, 3.9) month
- PFS: Number of censored patients [2]: 63 (20.7%) n (%)
- PFS: Number of deaths [2]: 31 (10.2%) n (%)
- PFS: Progressive Disease [2]: 210 (69.1%) n (%)
- Reduced risk of progression (vs. chemotherapy) [2]: 28%
- PFS: Number of events (Example 3 analysis, total population, N=304 per arm): 241 (79.3%) n (%)
- PFS Hazard Ratio (95% CI) [2]: 0.719 (0.599, 0.862)
- PFS: Number of censored patients (Example 4 updated, AC): 9 (13.8%) n (%)
- PFS: Number of deaths (Example 4 updated, AC): 7 (10.8%) n (%)
- PFS: Progressive Disease (Example 4 updated, AC): 49 (75.4%) n (%)
- reduction in the risk of disease progression (Example 4 updated, AC, post-hoc): 9%
- Median PFS (95% CI) (Example 4 updated, AC): 2.7 (2.3, 4.0) months
- Median PFS (95% CI) [3]: 2.7 months
- PFS: Number of events (Example 4 updated, AC, cemiplimab N=65, chemo N=66): 56 (86.2%) n (%)
- PFS HR (95% CI) (Example 4 updated, AC): 0.912 (0.623, 1.335)
- PFS HR (95% CI) [3]: 0.91
- PFS: Number of censored patients (Example 4 updated, SCC): 42 (17.6%) n (%)
- PFS: Number of deaths (Example 4 updated, SCC): 34 (14.2%) n (%)
- PFS: Progressive Disease (Example 4 updated, SCC): 163 (68.2%) n (%)
- Median PFS (95% CI) (Example 4 updated, SCC): 2.8 (2.6, 4.0) months
- Median PFS (95% CI) [4]: 2.8 months
- PFS HR (95% CI) (Example 4 updated, SCC): 0.705 (0.578, 0.861)
- PFS HR (95% CI) [4]: 0.71
- reduction in the risk of disease progression (Example 4 updated, SCC): 29%
- PFS: Number of censored patients [5]: 51(16.8%) n (%)
- PFS: Number of deaths [5]: 41(13.5%) n (%)
- PFS: Progressive Disease [5]: 212 (69.7%) n (%)
- Median PFS (95% CI) [5]: 2.8 (2.6, 3.9) months
- Median PFS (95% CI) [6]: 2.8 months
- PFS: Number of events (Example 4 updated, overall population, N=304 per arm): 253 (83.2%) n (%)
- PFS HR (95% CI) [5]: 0.745 (0.625, 0.890)
- PFS HR (95% CI) [6]: 0.75
- reduction in the risk of disease progression [5]: 25%
- OS subgroup analysis, Hazard Ratio (95% CI) (Geographic region: Asia): 0.65 (0.44-0.96)
- OS subgroup analysis, Hazard Ratio (95% CI) (Geographic region: North America): 0.52 (0.27-1.00)
- OS subgroup analysis, Hazard Ratio (95% CI) (Geographic region: Rest of World): 0.73 (0.57-0.94)
- OS subgroup analysis, Hazard Ratio (95% CI) (Prior bevacizumab use: No): 0.76 (0.58-1.00)
- OS subgroup analysis, Hazard Ratio (95% CI) (Prior bevacizumab use: Yes): 0.64 (0.48-0.86)
- Reduced risk of death (vs. chemotherapy) (SCC): 27%
- Estimated Event-Free Probability (PFS), % (95% CI) (SCC, 6 months): 34.5 (28.5, 40.5) %
- Estimated Survival Probability, % (95% CI) (SCC, 6 months): 69.6 (63.3, 75.0) %
- Estimated Event-Free Probability (PFS), % (95% CI) (SCC, 12 months): 21.0 (15.8, 26.6) %
- Estimated Survival Probability, % (95% CI) (SCC, 12 months): 48.2 (41.3, 54.7) %
- Estimated Event-Free Probability (PFS), % (95% CI) (SCC, 18 months): 14.5 (9.7, 20.1) %
- Estimated Survival Probability, % (95% CI) (SCC, 18 months): 33.4 (26.3, 40.6) %
- Estimated Event-Free Probability (PFS), % (95% CI) (SCC, 24 months): 10.3 (5.9, 16.0) %
- Estimated Survival Probability, % (95% CI) (SCC, 24 months): 25.3 (17.8, 33.5) %
- Estimated Event-Free Probability (PFS), % (95% CI) (SCC, 30 months): 7.7 (3.2, 14.8) %
- Estimated Survival Probability, % (95% CI) (SCC, 30 months): 25.3 (17.8, 33.5) %
- Median OS (95% CI) (SCC): 11.1 (9.2, 13.4) months
- Median OS (95% CI) (SCC, listed as cemiplimab): 11.1 months
- OS Hazard Ratio (95% CI) (SCC, stratified proportional hazards model): 0.727 (0.579, 0.914) and 0.73 (0.58-0.91)
- OS Hazard Ratio (95% CI) (SCC, stratified proportional hazards model, listed as cemiplimab): 0.73
- ORR (SCC, listed as cemiplimab): 17.6% and 18%
- Reduced risk of death (vs. chemotherapy) (SCC, listed as cemiplimab): 27%
- OS: Number of deaths (adenocarcinoma/adenosquamous (AC), cemiplimab N=65, chemo N=66): 41 (63.1%) n (%)
- Median observed time to response, months (range) (overall population): 2.7 (1.2-11.4) months
- Reduced risk of death (vs. chemotherapy) (overall population): 31%
- Estimated Event-Free Probability (PFS), % (95% CI) (overall population, 6 months): 33.5 (28.2, 38.9) %
- Estimated Survival Probability, % (95% CI) (overall population, 6 months): 69.6 (64.0, 74.5) %
- Estimated Event-Free Probability (PFS), % (95% CI) (overall population, 12 months): 18.8 (14.4, 23.6) %
- Estimated Survival Probability, % (95% CI) (overall population, 12 months): 50.2 (44.1, 56.0) %
- Estimated Event-Free Probability (PFS), % (95% CI) (overall population, 18 months): 13.0 (9.0, 17.8) %
- Estimated Survival Probability, % (95% CI) (overall population, 18 months): 33.4 (27.2, 39.7) %
- Estimated Event-Free Probability (PFS), % (95% CI) (overall population, 24 months): 9.7 (6.0, 14.6) %
- Estimated Survival Probability, % (95% CI) (overall population, 24 months): 23.6 (17.1, 30.6) %
- Estimated Event-Free Probability (PFS), % (95% CI) (overall population, 30 months): 7.8 (3.8, 13.6) %
- Estimated Survival Probability, % (95% CI) (overall population, 30 months): 23.6 (17.1, 30.6) %
- Median DOR, months (95% CI) (overall population): 16.4 (12.4, NE) months
- Median OS (95% CI) (overall population): 12.0 (10.3, 13.5) months
- Median DOR, months (95% CI) [7]: 16 months
- Median OS (95% CI) [7]: 12 months and 12.0 months
- Best Overall Tumor Response: Complete Response (CR) [8]: 10 (3.3) n (%)
- Best Overall Tumor Response: Not Evaluable (NE) [8]: 24 (7.9) n (%)
- Best Overall Tumor Response: Partial Response (PR) [8]: 40 (13.2) n (%)
- Best Overall Tumor Response: Progressive Disease (PD) [8]: 105 (34.5) n (%)
- OS: Number of censored patients [8]: 120 (39.5%) n (%)
- OS: Number of deaths [8]: 184 (60.5%) n (%)
- Objective Response Rate (ORR: CR + PR) [8]: 50 (16.4%) n (%)
- OS Hazard Ratio (95% CI) (overall population): 0.685 (0.560, 0.838)
- OS Hazard Ratio (95% CI) [7]: 0.69
- ORR [7]: 16.4% and 16%
- Reduced risk of death (vs. chemotherapy) [7]: 31%
- OS subgroup analysis, Hazard Ratio (95% CI) (prior lines: 1 line): 0.74 (0.58-0.94)
- OS subgroup analysis, Hazard Ratio (95% CI) (prior lines: >1 line): 0.72 (0.54-0.95)
